According to ChEMBL document CHEMBL1201862, “PubChem BioAssay data set” (2004):
Activity calls are given as the source filed them.

What was measured:
[1] = target: T1, Sphingosine 1-phosphate receptor 4 (Homo sapiens, UniProt O95977); test: Fluorescence dose response cell-based high throughput screening assay for antagonists of the Sphingosine 1-Phosphate Receptor 4 (S1P4). [Related pubchem assays: 1524 (Confirmation in triplicates.), 1510 (Primary screen.)]; type: functional
T1 sequence (O95977 whole entry): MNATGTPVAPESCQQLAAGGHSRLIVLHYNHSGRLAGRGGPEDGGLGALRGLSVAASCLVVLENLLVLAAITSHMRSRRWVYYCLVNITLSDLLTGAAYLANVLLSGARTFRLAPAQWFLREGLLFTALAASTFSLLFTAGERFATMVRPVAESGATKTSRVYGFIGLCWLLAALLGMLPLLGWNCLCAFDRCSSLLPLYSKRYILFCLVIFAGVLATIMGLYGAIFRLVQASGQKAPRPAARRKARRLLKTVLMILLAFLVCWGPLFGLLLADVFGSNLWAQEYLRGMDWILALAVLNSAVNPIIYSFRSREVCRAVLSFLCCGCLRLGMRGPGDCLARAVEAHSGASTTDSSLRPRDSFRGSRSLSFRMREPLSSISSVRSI

[2] = target: Sphingosine 1-phosphate receptor 1 (Homo sapiens, UniProt P21453); type: functional;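 also: Tango beta-arrestin reporter U2OS cells stimulated with S1P near its EC80; inhibitor potency meaning antagonism of receptor activation by the natural agonist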
Sphingosine 1-phosphate receptor 1, sequence (P21453 whole entry): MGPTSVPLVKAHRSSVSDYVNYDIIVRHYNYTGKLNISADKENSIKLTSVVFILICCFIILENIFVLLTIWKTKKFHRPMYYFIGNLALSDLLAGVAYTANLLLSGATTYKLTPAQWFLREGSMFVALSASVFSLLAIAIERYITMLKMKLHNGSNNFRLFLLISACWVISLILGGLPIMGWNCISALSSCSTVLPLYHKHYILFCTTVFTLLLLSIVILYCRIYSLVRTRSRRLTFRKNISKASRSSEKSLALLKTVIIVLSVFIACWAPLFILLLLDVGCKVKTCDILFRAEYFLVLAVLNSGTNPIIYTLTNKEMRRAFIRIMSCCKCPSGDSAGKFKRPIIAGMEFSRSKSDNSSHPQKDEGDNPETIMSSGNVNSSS

Exodeoxyribonuclease V = target: T2, Exodeoxyribonuclease V (Escherichia coli (strain K12), UniProt P04993+P07648+P08394); test: E. coli RecBCD inhibitors, dose response, counter-screen for AddAB inhibitor project, absorbance, V66 E. coli, mutant T4 phage (AID 492957); type: functional, cell-based, Escherichia coli str. K-12 substr. MG1655
T2 sequence (P04993 whole entry): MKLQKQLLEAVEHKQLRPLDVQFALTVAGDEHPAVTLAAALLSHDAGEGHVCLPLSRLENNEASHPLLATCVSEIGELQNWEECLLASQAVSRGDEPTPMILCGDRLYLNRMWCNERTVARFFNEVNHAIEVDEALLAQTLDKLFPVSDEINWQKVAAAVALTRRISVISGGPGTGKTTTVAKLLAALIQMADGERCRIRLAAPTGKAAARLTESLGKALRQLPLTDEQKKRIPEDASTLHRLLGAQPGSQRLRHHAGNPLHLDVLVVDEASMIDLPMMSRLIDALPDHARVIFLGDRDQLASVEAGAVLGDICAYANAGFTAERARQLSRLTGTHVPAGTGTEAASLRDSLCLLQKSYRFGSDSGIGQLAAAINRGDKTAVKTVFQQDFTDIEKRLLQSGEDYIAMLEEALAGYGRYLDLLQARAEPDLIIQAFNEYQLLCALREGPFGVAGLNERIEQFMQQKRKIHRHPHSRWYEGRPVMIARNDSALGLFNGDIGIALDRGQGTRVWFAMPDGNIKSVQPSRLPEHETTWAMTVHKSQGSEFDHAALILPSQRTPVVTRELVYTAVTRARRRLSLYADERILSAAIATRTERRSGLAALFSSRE
T2 sequence (P07648 whole entry): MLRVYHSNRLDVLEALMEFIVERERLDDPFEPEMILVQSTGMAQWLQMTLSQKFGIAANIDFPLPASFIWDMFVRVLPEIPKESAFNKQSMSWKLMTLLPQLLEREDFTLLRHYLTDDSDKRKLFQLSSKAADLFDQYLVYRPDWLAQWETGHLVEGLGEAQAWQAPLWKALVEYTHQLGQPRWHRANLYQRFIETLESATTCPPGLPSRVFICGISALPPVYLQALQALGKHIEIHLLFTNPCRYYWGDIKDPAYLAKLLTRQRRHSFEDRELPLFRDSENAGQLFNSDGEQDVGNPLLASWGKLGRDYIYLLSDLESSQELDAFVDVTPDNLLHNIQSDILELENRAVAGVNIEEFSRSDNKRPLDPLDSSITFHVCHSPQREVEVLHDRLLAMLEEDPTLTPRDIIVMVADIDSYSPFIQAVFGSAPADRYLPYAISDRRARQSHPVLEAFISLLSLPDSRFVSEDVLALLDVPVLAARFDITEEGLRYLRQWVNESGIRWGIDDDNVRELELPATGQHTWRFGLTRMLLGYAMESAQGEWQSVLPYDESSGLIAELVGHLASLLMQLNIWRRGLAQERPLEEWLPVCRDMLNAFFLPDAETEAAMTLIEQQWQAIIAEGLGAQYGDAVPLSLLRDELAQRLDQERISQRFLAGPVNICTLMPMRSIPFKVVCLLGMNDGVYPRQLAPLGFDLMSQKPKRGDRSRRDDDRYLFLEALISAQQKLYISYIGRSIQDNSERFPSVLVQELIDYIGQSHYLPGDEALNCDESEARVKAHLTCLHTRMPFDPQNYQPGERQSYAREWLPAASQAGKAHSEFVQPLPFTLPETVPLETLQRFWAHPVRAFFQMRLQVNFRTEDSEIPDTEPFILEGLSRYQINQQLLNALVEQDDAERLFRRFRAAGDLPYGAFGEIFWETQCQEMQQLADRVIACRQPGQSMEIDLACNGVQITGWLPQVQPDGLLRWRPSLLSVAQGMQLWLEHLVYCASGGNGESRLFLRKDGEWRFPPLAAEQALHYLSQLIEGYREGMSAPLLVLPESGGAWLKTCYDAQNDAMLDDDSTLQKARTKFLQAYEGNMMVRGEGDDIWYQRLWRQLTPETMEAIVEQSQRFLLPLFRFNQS
T2 sequence (P08394 whole entry): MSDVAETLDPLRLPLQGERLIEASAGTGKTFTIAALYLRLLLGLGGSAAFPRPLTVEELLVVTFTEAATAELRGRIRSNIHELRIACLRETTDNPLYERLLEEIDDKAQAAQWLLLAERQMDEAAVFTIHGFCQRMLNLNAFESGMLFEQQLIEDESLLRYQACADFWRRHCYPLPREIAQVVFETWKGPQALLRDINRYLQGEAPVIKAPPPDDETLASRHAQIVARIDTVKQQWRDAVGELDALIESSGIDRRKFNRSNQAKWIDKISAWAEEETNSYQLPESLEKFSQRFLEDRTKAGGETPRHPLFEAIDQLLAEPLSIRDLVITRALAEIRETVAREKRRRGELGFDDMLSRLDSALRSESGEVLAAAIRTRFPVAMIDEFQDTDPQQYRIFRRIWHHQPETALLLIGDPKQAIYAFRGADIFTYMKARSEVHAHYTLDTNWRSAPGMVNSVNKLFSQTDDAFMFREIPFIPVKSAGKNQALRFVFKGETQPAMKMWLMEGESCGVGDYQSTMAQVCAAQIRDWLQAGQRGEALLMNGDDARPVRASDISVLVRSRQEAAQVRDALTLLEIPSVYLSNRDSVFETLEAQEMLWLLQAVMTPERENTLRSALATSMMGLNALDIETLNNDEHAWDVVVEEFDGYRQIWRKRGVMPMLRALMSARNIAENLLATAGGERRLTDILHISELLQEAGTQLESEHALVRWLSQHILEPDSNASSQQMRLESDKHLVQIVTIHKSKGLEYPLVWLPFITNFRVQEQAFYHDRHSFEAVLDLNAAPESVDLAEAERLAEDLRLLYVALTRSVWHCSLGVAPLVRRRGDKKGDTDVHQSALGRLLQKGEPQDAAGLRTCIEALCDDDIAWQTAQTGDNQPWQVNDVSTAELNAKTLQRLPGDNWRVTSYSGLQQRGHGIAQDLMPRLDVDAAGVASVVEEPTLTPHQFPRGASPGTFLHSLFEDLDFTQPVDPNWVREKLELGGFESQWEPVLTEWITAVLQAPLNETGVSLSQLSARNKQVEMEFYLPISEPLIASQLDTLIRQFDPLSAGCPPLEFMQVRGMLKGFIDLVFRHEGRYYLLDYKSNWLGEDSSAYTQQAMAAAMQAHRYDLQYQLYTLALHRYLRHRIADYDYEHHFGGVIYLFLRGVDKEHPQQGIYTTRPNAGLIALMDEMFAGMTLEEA

Keap1/Nrf2 = Keap1/Nrf2 (Homo sapiens, UniProt Q14145); test: Keap1-Nrf2 protein-protein interaction inhibitors, dose response, biochemical, fluorescence polarization, cherry-picked samples (AID 588683)
Keap1/Nrf2, sequence (Q16236 whole entry): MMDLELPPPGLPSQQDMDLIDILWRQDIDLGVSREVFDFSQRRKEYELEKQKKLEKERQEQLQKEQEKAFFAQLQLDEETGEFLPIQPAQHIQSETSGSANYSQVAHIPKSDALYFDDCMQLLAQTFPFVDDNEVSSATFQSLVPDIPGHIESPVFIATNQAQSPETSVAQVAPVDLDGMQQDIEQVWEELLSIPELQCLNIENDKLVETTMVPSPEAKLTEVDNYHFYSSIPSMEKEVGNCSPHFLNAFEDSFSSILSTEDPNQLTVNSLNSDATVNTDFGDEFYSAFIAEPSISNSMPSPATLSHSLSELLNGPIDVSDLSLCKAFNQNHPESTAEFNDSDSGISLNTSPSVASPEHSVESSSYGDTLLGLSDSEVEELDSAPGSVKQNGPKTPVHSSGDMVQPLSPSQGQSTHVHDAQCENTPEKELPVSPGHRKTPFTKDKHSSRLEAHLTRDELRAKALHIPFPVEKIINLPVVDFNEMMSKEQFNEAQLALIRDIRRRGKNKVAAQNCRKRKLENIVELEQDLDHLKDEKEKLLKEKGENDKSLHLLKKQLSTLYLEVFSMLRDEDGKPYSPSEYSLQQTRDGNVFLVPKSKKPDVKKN
Keap1/Nrf2, sequence (Q14145 whole entry): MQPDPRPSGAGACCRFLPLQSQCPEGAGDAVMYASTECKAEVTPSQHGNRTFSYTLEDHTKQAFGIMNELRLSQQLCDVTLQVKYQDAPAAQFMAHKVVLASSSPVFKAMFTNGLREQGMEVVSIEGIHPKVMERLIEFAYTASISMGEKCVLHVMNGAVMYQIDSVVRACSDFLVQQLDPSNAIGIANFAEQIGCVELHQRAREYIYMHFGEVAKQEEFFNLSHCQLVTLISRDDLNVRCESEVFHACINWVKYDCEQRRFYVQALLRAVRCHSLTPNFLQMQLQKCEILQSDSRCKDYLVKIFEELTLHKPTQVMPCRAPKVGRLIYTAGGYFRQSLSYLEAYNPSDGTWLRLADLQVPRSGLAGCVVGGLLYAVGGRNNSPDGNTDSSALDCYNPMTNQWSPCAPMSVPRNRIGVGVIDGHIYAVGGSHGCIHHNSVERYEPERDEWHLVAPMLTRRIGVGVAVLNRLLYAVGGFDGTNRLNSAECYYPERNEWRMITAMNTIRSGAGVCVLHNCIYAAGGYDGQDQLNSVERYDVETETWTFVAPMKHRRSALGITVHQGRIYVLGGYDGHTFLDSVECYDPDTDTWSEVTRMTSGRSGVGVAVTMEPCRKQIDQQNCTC

Beta Lactamase [3] = target: T3, Beta Lactamase (Pseudomonas aeruginosa, UniProt Q932Y6); test: beta-lactamase reporter inhibitor potency, dose response, artefact control for TLR9-MyD88 binding inhibitor project, BLA reporter cells, FRET fluorescence (AID 588341); type: cell-based;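 also: cell based assay in CHO-K1 cells stably expressing beta-lactamase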
T3 sequence (Q932Y6 whole entry): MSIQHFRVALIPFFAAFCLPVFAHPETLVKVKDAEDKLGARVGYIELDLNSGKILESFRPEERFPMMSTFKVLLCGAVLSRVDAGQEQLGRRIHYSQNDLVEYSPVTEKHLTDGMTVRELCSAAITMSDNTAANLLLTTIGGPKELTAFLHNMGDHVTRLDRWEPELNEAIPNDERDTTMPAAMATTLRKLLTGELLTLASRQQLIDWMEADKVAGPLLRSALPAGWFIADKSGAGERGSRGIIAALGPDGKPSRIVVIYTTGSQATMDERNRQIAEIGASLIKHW

Beta Lactamase [4] = target: T3, Beta Lactamase; test: beta-lactamase reporter inhibitor potency, dose response, artefact control for NOD2-RIPK2 interaction inhibitor project, BLA reporter cells, FRET fluorescence (AID 651552); type: functional, cell-based
HeLa = test: HeLa cell cytotoxicity, dose response, cytotoxicity control, 24 h, cherry-picked samples (AID 504726); type: functional, cell-based; details: Homo sapiens;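 also: potency for cytotoxicity as loss of luminescence signal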
[5] = target: T4, Alkaline phosphatase, tissue-nonspecific isozyme (Homo sapiens, UniProt P05186)
T4 sequence (P05186 whole entry): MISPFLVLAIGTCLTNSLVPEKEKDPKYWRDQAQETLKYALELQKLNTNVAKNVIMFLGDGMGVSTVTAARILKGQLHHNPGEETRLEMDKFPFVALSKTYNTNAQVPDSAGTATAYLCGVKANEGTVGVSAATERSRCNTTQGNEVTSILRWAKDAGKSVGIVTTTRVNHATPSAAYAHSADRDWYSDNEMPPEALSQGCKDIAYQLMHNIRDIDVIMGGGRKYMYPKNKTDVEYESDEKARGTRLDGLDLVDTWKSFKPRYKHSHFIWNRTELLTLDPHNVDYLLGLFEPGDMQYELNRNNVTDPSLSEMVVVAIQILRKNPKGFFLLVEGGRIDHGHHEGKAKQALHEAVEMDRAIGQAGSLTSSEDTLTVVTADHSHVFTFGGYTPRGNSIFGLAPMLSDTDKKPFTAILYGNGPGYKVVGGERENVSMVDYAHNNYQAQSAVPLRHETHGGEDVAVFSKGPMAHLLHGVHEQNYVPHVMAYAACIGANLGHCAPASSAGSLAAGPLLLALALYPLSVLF

[6] = human group III sPLA2 inhibitors, dose response, biochemical, QFRET, IC50 (AID 743457);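 also: green fluorescence rise as the enzyme cleaves BODIPY PC-A2 in liposomes; potency for inhibition of the enzyme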
[7] = inhibitors of Bluetongue virus cytopathic effect, confirmation, arbovirus, BSR cells (AID 1250); type: functional;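 also: protection from viral cytopathic effect measured as cell viability by ATP luminescence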
[8] = target: FAD-linked sulfhydryl oxidase ALR (Homo sapiens, UniProt P55789); test: inhibitors of human ALR sulfhydryl oxidase, dose response, biochemical, H2O2 detection, luminescence, cherry-pick (AID 493248)
FAD-linked sulfhydryl oxidase ALR, sequence (P55789 whole entry): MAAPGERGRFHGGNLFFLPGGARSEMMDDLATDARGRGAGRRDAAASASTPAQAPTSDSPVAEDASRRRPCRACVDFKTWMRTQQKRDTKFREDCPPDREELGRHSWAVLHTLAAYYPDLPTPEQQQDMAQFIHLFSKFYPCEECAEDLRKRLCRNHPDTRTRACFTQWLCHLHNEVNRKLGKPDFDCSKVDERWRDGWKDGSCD

Vero = test: Vero E6 cell cytotoxicity, SAR follow-up, cytotoxicity control for West Nile virus antiviral project, synthesized analogs (AID 2244); type: functional; details: Chlorocebus sabaeus
[9] = Counterscreen for IDE inhibitors: Luminescence-based cell-based high throughput dose response assay to identify compounds that are cytotoxic to HEK cells. [Related pubchem assays: 434962 (Primary screen (IDE inhibitors in singlicate)), 449730 (Counterscreen (Cytotoxicity in triplicate)), 435028 (Confirmation (IDE inhibitors in triplicate)) …; type: functional; details: HEK293
Insulin-degrading enzyme = Insulin-degrading enzyme (Homo sapiens, UniProt P14735); test: Dose Response: Fluorescence polarization-based cell-based high throughput dose response assay for inhibitors of insulin-degrading enzyme (IDE). [Related pubchem assays: 434962 (Primary screen (IDE inhibitors in singlicate)), 449730 (Counterscreen (Cytotoxicity in triplicate)), 435028 (Confirmation (IDE inhibitors in triplicate)), 434984 (Summary …; type: functional
Insulin-degrading enzyme, sequence (P14735 whole entry): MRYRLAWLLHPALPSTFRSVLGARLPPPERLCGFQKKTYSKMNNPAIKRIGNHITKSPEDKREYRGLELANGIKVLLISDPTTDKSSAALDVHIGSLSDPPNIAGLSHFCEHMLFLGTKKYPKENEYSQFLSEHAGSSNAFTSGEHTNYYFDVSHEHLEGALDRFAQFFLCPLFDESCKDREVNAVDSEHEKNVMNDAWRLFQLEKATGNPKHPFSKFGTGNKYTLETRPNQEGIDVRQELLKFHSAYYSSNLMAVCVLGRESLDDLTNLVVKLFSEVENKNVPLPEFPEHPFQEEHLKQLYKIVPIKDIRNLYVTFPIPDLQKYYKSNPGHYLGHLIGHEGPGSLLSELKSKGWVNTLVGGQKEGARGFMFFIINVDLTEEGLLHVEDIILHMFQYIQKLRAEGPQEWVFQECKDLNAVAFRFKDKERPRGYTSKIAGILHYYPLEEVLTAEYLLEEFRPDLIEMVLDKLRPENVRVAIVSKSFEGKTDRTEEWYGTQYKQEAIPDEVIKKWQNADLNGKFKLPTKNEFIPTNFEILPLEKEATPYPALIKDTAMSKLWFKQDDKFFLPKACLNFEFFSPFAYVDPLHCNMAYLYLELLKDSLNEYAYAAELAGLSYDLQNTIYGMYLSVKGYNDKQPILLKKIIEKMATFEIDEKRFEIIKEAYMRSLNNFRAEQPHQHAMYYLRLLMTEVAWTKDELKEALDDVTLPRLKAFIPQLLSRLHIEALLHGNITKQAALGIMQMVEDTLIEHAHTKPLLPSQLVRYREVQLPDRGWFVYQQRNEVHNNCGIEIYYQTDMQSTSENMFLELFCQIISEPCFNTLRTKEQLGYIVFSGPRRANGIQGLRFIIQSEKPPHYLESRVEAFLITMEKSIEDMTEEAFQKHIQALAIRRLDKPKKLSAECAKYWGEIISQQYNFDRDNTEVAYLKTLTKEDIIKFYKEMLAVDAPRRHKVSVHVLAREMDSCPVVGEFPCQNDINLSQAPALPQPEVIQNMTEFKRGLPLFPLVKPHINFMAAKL

C=CCn1c(Sc2ncc([N+](=O)[O-])s2)n[nH]c1=O
IC50 [1]: 2.63 µM (active)
IC50 [2]: 18.1 µM (not active)
IC50 (Exodeoxyribonuclease V): 77.2 µM (inactive)
AC50 (Keap1/Nrf2): > 52 µM (inactive)
IC50 (Beta Lactamase [3]): > 49.8 µM (inactive)
IC50 (Beta Lactamase [4]): 42 µM (inactive)

NNc1nc2sc3c(c2c(=O)n1C1CCCCC1)CCN(Cc1ccccc1)C3
AC50 (HeLa): 46 µM (active)

Cc1ccc(NC(S)=NNC(=O)c2nn(C)cc2Cl)cc1
EC50 [5]: 61 µM (not active)
IC50 [6]: > 122 µM (inactive)

CCN(CC)c1ccc(NC(=O)c2c(OC)cccc2OC)c(C)c1
IC50 [7]: 23.5 µM (active)
AC50 [8]: 0.84 µM (active)

COc1ccc(-c2csc(NC(=O)c3ccccc3Cl)n2)cc1
CC50 (Vero): > 40 µM (active)

O=C(N/N=C/c1cccnc1)c1cccc(NC(=O)c2cccc(Br)c2)c1
IC50 [9]: 53.6 µM (not active)
IC50 (Insulin-degrading enzyme): 21.9 µM (not active)
